Experiment [1] has as its target T1, GPR17 (Homo sapiens, UniProt Q13304). Kind of experiment: Calcium mobilization functional assay (GPR17 Ca2+ assay). Particulars: CHO hGPR17 cells, inhibition of 50 nM MDL29,951, Calcium 5 dye, FLIPR; read-out: Ca2+ assay pIC50 (converted). Details: host or cells: Flp-In T-REx CHO. The class given is cell-based. Put shortly: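 pIC50 values were fitted with a 4-parameter logistic curve. They reflect test-compound inhibition of cytosolic Ca2+ release evoked by 50 nM MDL29,951, tracked as Calcium 5 fluorescence at room temperature. Cells were CHO Flp-In T-REx stably carrying human GPR17, induced with doxycycline 1 μg/mL for 16-20 h.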

In experiment [2] the target is T1, GPR17. Nature of the experiment: cAMP accumulation functional assay (HTRF, Schild analysis). The class given is cell-based. Details: host or cells: Flp-In T-REx CHO. The note with it: CHO hGPR17 cells, Schild analysis vs MDL29,951, 5 μM forskolin, read-out: cAMP assay pA2 (converted). The procedure: Flp-In T-REx CHO cells stably expressing human GPR17 receptor (CHO hGPR17) from Evi Kostenis' lab (Bonn University, Germany) were cultured at 37° C. in a humidified atmosphere of 5% CO2. Cells were grown in DMEM with Nutrient Mixture F-12 supplemented with hygromycin B (500 μg/mL) and blasticidin (30 μg/mL). Expression from the Flp-In locus was induced by treatment with doxycycline (1 μg/mL) for 16-20 h prior assays.
GPR17 activation can also recruit Gi-type G-protein signaling, resulting in a decrease of intracellular cyclic adenosine monophosphate (cAMP). Intracellular cAMP changes can be measured using the HTRF cAMP dynamic assay kit from CisBio (Codolet, France). Using homogenous time-resolved fluorescence technology (HTRF), the assay is based on competition between native cAMP produced by cells and cAMP labelled with the dye d2. The tracer binding was determined by an anti-cAMP antibody labeled with cryptate.
CHO hGPR17 were detached with PBS containing EDTA and dispatched in black 384-well plates with 5,000 cells per well. Cells were first incubated for 30 minutes at room temperature in HBSS Hepes (pH 7.4) containing vehicle or varying concentrations of test GPR17 antagonist/inverse agonist compounds. […] After 60 minutes incubation at room temperature, the reaction is terminated and the cells lysed by adding the d2 detection reagent and the cryptate reagent in 10 μL lysis buffer each according to manufacturer's instructions. After 60 minutes incubation, changes in cAMP concentrations are measured according to manufacturer's instructions using an Envision plate reader with laser excitation. All incubations were performed in duplicate. Data was analyzed using GraphPad Prism software using the 4-parameter logistic equation to measure MDL29,951 pEC50s in absence and presence of GPR17 antagonist/inverse agonist test compounds. Dose ratio (DR) were plotted against antagonist concentrations and Schild analysis provided estimated affinity pA2 of GPR17 antagonist/inverse agonist test compounds.
The activities of the Example compounds tested are depicted in the table below. The activity ranges A, B and C refer to pA2 values in the cAMP assay as follows: “A”: pA2<7.5, “B”: pA2 7.5<x≤8.5, “C”: pA2>8.5.
(In general: Changes in cAMP serve as a functional read-out for many G protein-coupled receptors.)

The results in this text go back to patent publication US12071404B2, “Aza (indole)-, benzothiophene-, and benzofuran-3-sulfonamides” (UCB Pharma GmbH, priority 2016, dated 2024).

T1 sequence (Q13304 whole entry): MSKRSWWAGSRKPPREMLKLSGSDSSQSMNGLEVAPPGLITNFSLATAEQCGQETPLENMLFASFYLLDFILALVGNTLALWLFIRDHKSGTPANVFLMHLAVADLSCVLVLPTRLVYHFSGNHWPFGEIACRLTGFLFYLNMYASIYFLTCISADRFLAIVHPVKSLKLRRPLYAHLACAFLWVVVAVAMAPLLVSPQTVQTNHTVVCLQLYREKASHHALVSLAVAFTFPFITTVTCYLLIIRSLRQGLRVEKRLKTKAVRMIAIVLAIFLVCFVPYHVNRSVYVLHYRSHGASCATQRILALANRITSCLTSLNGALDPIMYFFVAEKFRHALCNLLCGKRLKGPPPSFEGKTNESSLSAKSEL

As for `O=S(=O)(Nc1ccc(F)cc1F)c1c[nH]c2nc(Br)ccc12` [Compound I-91, 6-bromo-N-(2,4-difluorophenyl)-1H-pyrrolo[2,3-b]pyridine-3-sulfonamide], the IC50 on GPR17 [1] is greater than 31.6 nM. For the same molecule, at GPR17 [2], the Kb is greater than 31.6 nM.

Consider `O=C1OCc2ccc(NS(=O)(=O)c3c[nH]c4nc(Br)ccc34)cc21` [Compound I-92, 6-bromo-N-(3-oxo-1,3-dihydro-2-benzofuran-5-yl)-1H-pyrrolo[2,3-b]pyridine-3-sulfonamide], for which, at GPR17 [1], the IC50 was greater than 31.6 nM. The Kb on GPR17 [2] is greater than 31.6 nM.

Take `O=S(=O)(Nc1cccc2nsnc12)c1c[nH]c2nc(Cl)ccc12` [Compound I-93, N-(2,1,3-benzothiadiazol-4-yl)-6-chloro-1H-pyrrolo[2,3-b]pyridine-3-sulfonamide]: the IC50 at GPR17 [1] was 3.16 to 31.6 nM. In addition, at GPR17 [2], the Kb is 3.16 to 31.6 nM.

Consider `O=S(=O)(Nc1ccc(I)cc1F)c1c[nH]c2nc(Cl)ccc12` [Compound I-94, 6-chloro-N-(2-fluoro-4-iodophenyl)-1H-pyrrolo[2,3-b]pyridine-3-sulfonamide], for which the IC50 at GPR17 [1] was 3.16 to 31.6 nM. In addition, the Kb at GPR17 [2] is 3.16 to 31.6 nM.

As for `O=S(=O)(Nc1cc(F)c(F)cc1F)c1c[nH]c2nc(Br)ccc12` [Compound I-95, 6-bromo-N-(2,4,5-trifluorophenyl)-1H-pyrrolo[2,3-b]pyridine-3-sulfonamide], the IC50 at GPR17 [1] was 3.16 to 31.6 nM. For the same molecule, at GPR17 [2], the Kb is 3.16 to 31.6 nM.

For `O=S(=O)(Nc1cccc2c1OCO2)c1c[nH]c2nc(Cl)ccc12` [Compound I-96, N-(1,3-benzodioxol-4-yl)-6-chloro-1H-pyrrolo[2,3-b]pyridine-3-sulfonamide], on GPR17 [1], the IC50 was 3.16 to 31.6 nM. The Kb on GPR17 [2] is greater than 31.6 nM.

`O=S(=O)(Nc1cccc2c1OCO2)c1c[nH]c2nc(Br)ccc12` [Compound I-97, N-(1,3-benzodioxol-4-yl)-6-bromo-1H-pyrrolo[2,3-b]pyridine-3-sulfonamide]: on GPR17 [1], the IC50 is 3.16 to 31.6 nM. Besides, on GPR17 [2], the Kb was 3.16 to 31.6 nM.

For `O=S(=O)(Nc1cccc2nsnc12)c1c[nH]c2ncc(I)cc12` [Compound I-98, N-(2,1,3-benzothiadiazol-4-yl)-5-iodo-1H-pyrrolo[2,3-b]pyridine-3-sulfonamide], at GPR17 [1], the IC50 was 3.16 to 31.6 nM. The Kb at GPR17 [2] is 3.16 to 31.6 nM.

Regarding `O=S(=O)(Nc1cccc2c1OC(F)(F)O2)c1c[nH]c2nc(Cl)ccc12` [Compound I-100, 6-chloro-N-(2,2-difluoro-1,3-benzodioxol-4-yl)-1H-pyrrolo[2,3-b]pyridine-3-sulfonamide], the IC50 on GPR17 [1] was greater than 31.6 nM. Moreover, the Kb on GPR17 [2] was 3.16 to 31.6 nM.

Consider `O=S(=O)(Nc1ccc(I)cc1F)c1c[nH]c2nc(Br)ccc12` [Compound I-104, 6-bromo-N-(2-fluoro-4-iodophenyl)-1H-pyrrolo[2,3-b]pyridine-3-sulfonamide], for which, on GPR17 [1], the IC50 was less than 3.16 nM. For the same molecule, the Kb at GPR17 [2] was less than 3.16 nM.

For the molecule `O=S(=O)(Nc1cccc2nsnc12)c1c[nH]c2cc(F)ccc12` [Compound I-107, N-(2,1,3-benzothiadiazol-4-yl)-6-fluoro-1H-indole-3-sulfonamide], the IC50 on GPR17 [1] is 3.16 to 31.6 nM. Besides, the Kb at GPR17 [2] was 3.16 to 31.6 nM.

Take `N#Cc1ccc(NS(=O)(=O)c2c[nH]c3nc(Cl)ccc23)c(F)c1` [Compound I-108, 6-chloro-N-(4-cyano-2-fluorophenyl)-1H-pyrrolo[2,3-b]pyridine-3-sulfonamide]: the IC50 at GPR17 [1] was 3.16 to 31.6 nM. On GPR17 [2], the Kb was 3.16 to 31.6 nM.

With `O=S(=O)(Nc1cccc2nsnc12)c1c[nH]c2cc(Cl)ccc12` [Compound I-109, N-(2,1,3-benzothiadiazol-4-yl)-6-chloro-1H-indole-3-sulfonamide], the IC50 at GPR17 [1] is less than 3.16 nM. Also, the Kb at GPR17 [2] was 3.16 to 31.6 nM.

Take `O=S(=O)(Nc1cccc2nsnc12)c1c[nH]c2cc(Br)ccc12` [Compound I-110, N-(2,1,3-benzothiadiazol-4-yl)-6-bromo-1H-indole-3-sulfonamide]: the IC50 on GPR17 [1] was less than 3.16 nM. Also, on GPR17 [2], the Kb is less than 3.16 nM.

For `COc1ccc2c(S(=O)(=O)Nc3ccc(C#N)cc3F)c[nH]c2c1` [Compound I-112, N-(4-cyano-2-fluorophenyl)-6-methoxy-1H-indole-3-sulfonamide], on GPR17 [1], the IC50 is 3.16 to 31.6 nM. Besides, at GPR17 [2], the Kb was 3.16 to 31.6 nM.

`N#Cc1ccc(NS(=O)(=O)c2c[nH]c3cc(F)ccc23)c(F)c1` [Compound I-113, N-(4-cyano-2-fluorophenyl)-6-fluoro-1H-indole-3-sulfonamide]: the IC50 on GPR17 [1] is 3.16 to 31.6 nM. The Kb on GPR17 [2] was greater than 31.6 nM.

Consider `N#Cc1ccc(NS(=O)(=O)c2c[nH]c3cc(Br)ccc23)c(F)c1` [Compound I-114, 6-bromo-N-(4-cyano-2-fluorophenyl)-1H-indole-3-sulfonamide], for which, at GPR17 [1], the IC50 is less than 3.16 nM. In addition, the Kb at GPR17 [2] is less than 3.16 nM.

For `O=S(=O)(Nc1cc(F)c(Cl)cc1F)c1c[nH]c2c1ccc1cccnc12` [Compound I-118, N-(4-chloro-2,5-difluorophenyl)-1H-pyrrolo[3,2-h]quinoline-3-sulfonamide], at GPR17 [1], the IC50 was less than 3.16 nM. Further, at GPR17 [2], the Kb is less than 3.16 nM.

As for `O=S(=O)(Nc1cccc2nonc12)c1c[nH]c2c1ccc1cccnc12` [Compound I-119, N-(2,1,3-benzoxadiazol-4-yl)-1H-pyrrolo[3,2-h]quinoline-3-sulfonamide], the IC50 on GPR17 [1] is 3.16 to 31.6 nM. Also, the Kb on GPR17 [2] was 3.16 to 31.6 nM.

For `O=S(=O)(Nc1cccc2c1OC(F)(F)O2)c1c[nH]c2cc(Cl)ccc12` [Compound I-123, 6-chloro-N-(2,2-difluoro-1,3-benzodioxol-4-yl)-1H-indole-3-sulfonamide], the IC50 at GPR17 [1] is 3.16 to 31.6 nM. At GPR17 [2], the Kb was 3.16 to 31.6 nM.

Regarding `COc1cc(NS(=O)(=O)c2c[nH]c3cc(Cl)ccc23)ccc1C#N` [Compound I-124, 6-chloro-N-(4-cyano-3-methoxyphenyl)-1H-indole-3-sulfonamide], the IC50 at GPR17 [1] is 3.16 to 31.6 nM. The Kb on GPR17 [2] was 3.16 to 31.6 nM.

Consider `O=S(=O)(Nc1cc2c(cc1F)OC(F)(F)O2)c1c[nH]c2cc(Cl)ccc12` [Compound I-125, 6-chloro-N-(2,2,6-trifluoro-1,3-benzodioxol-5-yl)-1H-indole-3-sulfonamide], for which, at GPR17 [1], the IC50 was 3.16 to 31.6 nM. Further, at GPR17 [2], the Kb was 3.16 to 31.6 nM.

Take `COc1cc(C#N)ccc1NS(=O)(=O)c1c[nH]c2cc(Cl)ccc12` [Compound I-126, 6-chloro-N-(4-cyano-2-methoxyphenyl)-1H-indole-3-sulfonamide]: the IC50 on GPR17 [1] was 3.16 to 31.6 nM. On GPR17 [2], the Kb is 3.16 to 31.6 nM.

Turning to `O=S(=O)(Nc1ccc(F)c2nsnc12)c1c[nH]c2cc(Cl)ccc12` [Compound I-127, 6-chloro-N-(7-fluoro-2,1,3-benzothiadiazol-4-yl)-1H-indole-3-sulfonamide], the IC50 on GPR17 [1] was 3.16 to 31.6 nM. For the same molecule, the Kb at GPR17 [2] was 3.16 to 31.6 nM.

With `COc1cc(Br)cnc1NS(=O)(=O)c1c[nH]c2cc(Cl)ccc12` [Compound I-129, N-(5-bromo-3-methoxypyridin-2-yl)-6-chloro-1H-indole-3-sulfonamide], the IC50 on GPR17 [1] is 3.16 to 31.6 nM. The Kb at GPR17 [2] was 3.16 to 31.6 nM.

`N#Cc1cc(NS(=O)(=O)c2c[nH]c3cc(Cl)ccc23)c2c(c1)OC(F)(F)O2` [Compound I-132, 6-chloro-N-(6-cyano-2,2-difluoro-1,3-benzodioxol-4-yl)-1H-indole-3-sulfonamide]: the IC50 on GPR17 [1] was 3.16 to 31.6 nM. For the same molecule, the Kb on GPR17 [2] is 3.16 to 31.6 nM.

Regarding `N#Cc1ccc(NS(=O)(=O)c2c[nH]c3cc(C4CC4)ccc23)cc1` [Compound I-133, N-(4-cyanophenyl)-6-cyclopropyl-1H-indole-3-sulfonamide], the IC50 at GPR17 [1] is less than 3.16 nM. Also, at GPR17 [2], the Kb is 3.16 to 31.6 nM.

Regarding `N#Cc1ccc(NS(=O)(=O)c2c[nH]c3cc(Br)ccc23)cc1` [Compound I-134, 6-bromo-N-(4-cyanophenyl)-1H-indole-3-sulfonamide], on GPR17 [1], the IC50 was less than 3.16 nM. The Kb at GPR17 [2] is less than 3.16 nM.

Take `N#Cc1ccc(NS(=O)(=O)c2coc3cc(Cl)ccc23)cc1` [Compound I-139, 6-chloro-N-(4-cyanophenyl)-1-benzofuran-3-sulfonamide]: the IC50 on GPR17 [1] is 3.16 to 31.6 nM. Moreover, at GPR17 [2], the Kb was greater than 31.6 nM.

Take `O=S(=O)(Nc1ccc(I)cc1F)c1c[nH]c2cc(Cl)ccc12` [Compound I-140, 6-chloro-N-(2-fluoro-4-iodophenyl)-1H-indole-3-sulfonamide]: the IC50 at GPR17 [1] is less than 3.16 nM. Further, the Kb at GPR17 [2] was less than 3.16 nM.
